Data taken from patent US20230021483A1, “[…] […] METHOD AND CLASSIFICATION OF PHARMACEUTICAL COMPONENTS BY USING TRANSCRIPTOMES” (National Institutes of Biomedical Innovation, Health and …, priority 2016, published 2023).
Values joined by “and” are separate entries in the source; they are usually repeats but may differ in a detail not shown here. Equal values may be shown once.

Experiments:
Type in all cases: in vivo, C57BL/6 mice
[1] = system: spleen (SP); experiment: Whole organ transcriptome (GeneChip microarray) of spleen 6 h after adjuvant administration: sDEGs, hierarchical clustering; details: for Number of gene probes with statistically significant changes (sDEGs), SP, Down: fold change <0.667, p<0.01, customized PA call=1, 6 h after adjuvant; for Number of gene probes with statistically significant changes (sDEGs), SP, Up: fold change >1.5, p<0.01, customized PA call=1, 6 h after adjuvant; for adjuvant group (cluster) in SP: key: G1 (interferon signaling); G2 (metabolism of lipids and lipoproteins); G3 (response to stress); G4 (response to wounding); G5 (phosphate-containing compound metabolic process); G6 (phagosome)
[2] = system: inguinal lymph nodes (LN); experiment: Whole organ transcriptome (GeneChip microarray) of draining inguinal lymph nodes 6 h after adjuvant administration: sDEGs, gene modules, hierarchical clustering; details: lymph node; for adjuvant group (cluster) in LN: key: G1 (interferon signaling); G2 (metabolism of lipids and lipoproteins); G3 (response to stress); G4 (response to wounding); G5 (phosphate-containing compound metabolic process); G6 (phagosome)
[3] = system: preferentially upregulated genes in LV, SP, LN; experiment: Z-score-based differential gene expression analysis (adjuvant group- or adjuvant-associated genes, 40 module mapping, TargetMine annotation); details: for Adar 1425405_a_at (Group G1, Modules 20) / Adar 1434268_at (Group G1, Modules 20) / Ddx58 1436562_at (Group G1, Modules 20) / Ddx58 1456890_at (Group G1, Modules 20) / Gm9706///Isg15 1431591_s_at (Group G1, Modules 20) / Ifit1 1450783_at (Group G1, Modules 20) / Ifit3 1449025_at (Group G1, Modules 20) / Irgm1 1418825_at (Group G1, Modules 20) / Mndal 1426906_at (Group G1, Modules 20) / Rsad2 1436058_at (Group G1, Modules 20) / Shisa5 1423986_a_at (Group G1, Modules 20) / Shisa5 1437503_a_at (Group G1, Modules 20) / Stat1 1450033_a_at (Group G1, Modules 20) / Stat1 1450034_at (Group G1, Modules 20) / Tor1aip2 1435526_at (Group G1, Modules 20): IP, LV
Source text: Each sample's FC value was converted into a z-score on a gene basis by using the entire data set for each organ. The Z-score of the triplicates of interest were summed for each adjuvant. For example, the three sample z-score in the LV sample following cdiGMP administration was summed on a gene-by-gene basis, after which the summed scores of >3 genes were selected as relatively preferentially expressed genes in the LV after cdiGMP administration. The following threshold was applied for selections. […] G2^LV: ALM_IP(z>1) & bCD(z>1) & ENDCN(z>1) & FCA(z>1). […] G4^LV: MALP2s(z>3). […] G2^SP: ENDCN_x2+ENDCN_x3(z>2) & ALM_IP(z>3) & bCD(z>3). […] G4^SP: ADX_ID_x2+ADX_ID_x3(z>2) & ADX_IP(z>3) & MALP2s(z>3). […] G2^LN: bCD(z>3) & FCA(z>3). […] G5^LN: K3(z>1.5) & K3SPG_x1+K3SPG_x2(z>1) & D35_x1+D35_x3(z>1). G6^LN: AddaVax(z>3).

[4] = liver (LV), gene group G1, module 20, individual mice x1-x3, route ID/IP/IN

Compound: CC(O)COC[C@H]1O[C@@H]2O[C@H]3[C@H](O)[C@@H](O)[C@@H](O[C@H]4[C@H](O)[C@@H](O)[C@@H](O[C@H]5[C@H](O)[C@@H](O)[C@@H](O[C@H]6[C@H](O)[C@@H](O)[C@@H](O[C@H]7[C@H](O)[C@@H](O)[C@@H](O[C@H]8[C@H](O)[C@@H](O)[C@@H](O[C@H]1[C@H](O)[C@H]2O)O[C@@H]8COCC(C)O)O[C@@H]7COCC(C)O)O[C@@H]6COCC(C)O)O[C@@H]5COCC(C)O)O[C@@H]4COCC(C)O)O[C@@H]3COCC(C)O (stereo partly drawn) [bCD, Hydroxypropyl-beta-cyclodextrin]
- adjuvant group (cluster) in SP ([1]; hierarchical clustering): G2
- Number of gene probes with statistically significant changes (sDEGs), SP, Down ([1]; i.d. administration): 59
- Number of gene probes with statistically significant changes (sDEGs), SP, Up ([1]; i.d. administration): 111
- Number of gene probes with statistically significant changes (sDEGs), SP, Down ([1]; i.p. administration): 5
- Number of gene probes with statistically significant changes (sDEGs), SP, Up ([1]; i.p. administration): 4
- adjuvant group (cluster) in LN ([2]; hierarchical clustering): G2
- Number of gene probes with statistically significant changes (sDEGs), LN, Down ([2]; i.d. administration, fold change <0.667, p<0.01, customized PA call=1, 6 h after adjuvant): 110
- Number of gene probes with statistically significant changes (sDEGs), LN, Up ([2]; i.d. administration, fold change >1.5, p<0.01, customized PA call=1, 6 h after adjuvant): 89
- Adar 1425405_a_at (Group G1, Modules 20) ([3]; sample x1): −0.5
- Adar 1434268_at (Group G1, Modules 20) ([3]; sample x1): −0.3
- Ddx58 1436562_at (Group G1, Modules 20) ([3]; sample x1): −0.4
- Ddx58 1456890_at (Group G1, Modules 20) ([3]; sample x1): −0.6
- Gm9706///Isg15 1431591_s_at (Group G1, Modules 20) ([3]; sample x1): −0.5
- Ifit1 1450783_at (Group G1, Modules 20) ([3]; sample x1): −0.5
- Ifit3 1449025_at (Group G1, Modules 20) ([3]; sample x1): −0.5
- Irgm1 1418825_at (Group G1, Modules 20) ([3]; sample x1): −0.5
- Mndal 1426906_at (Group G1, Modules 20) ([3]; sample x1): −0.3
- Rsad2 1436058_at (Group G1, Modules 20) ([3]; sample x1): −0.5
- Shisa5 1423986_a_at (Group G1, Modules 20) ([3]; sample x1): −0.6
- Shisa5 1437503_a_at (Group G1, Modules 20) ([3]; sample x1): −0.4
- Stat1 1450033_a_at (Group G1, Modules 20) ([3]; sample x1): −0.5
- Stat1 1450034_at (Group G1, Modules 20) ([3]; sample x1): −0.5
- Tor1aip2 1435526_at (Group G1, Modules 20) ([3]; sample x1): −0.4
- Adar 1425405_a_at (Group G1, Modules 20) ([3]; sample x2): −0.4
- Adar 1434268_at (Group G1, Modules 20) ([3]; sample x2): −0.4
- Ddx58 1436562_at (Group G1, Modules 20) ([3]; sample x2): −0.3
- Ddx58 1456890_at (Group G1, Modules 20) ([3]; sample x2): −0.4
- Gm9706///Isg15 1431591_s_at (Group G1, Modules 20) ([3]; sample x2): −0.5
- Ifit1 1450783_at (Group G1, Modules 20) ([3]; sample x2): −0.5
- Ifit3 1449025_at (Group G1, Modules 20) ([3]; sample x2): −0.5
- Irgm1 1418825_at (Group G1, Modules 20) ([3]; sample x2): −0.6
- Mndal 1426906_at (Group G1, Modules 20) ([3]; sample x2): −0.3
- Rsad2 1436058_at (Group G1, Modules 20) ([3]; sample x2): −0.4
- Shisa5 1423986_a_at (Group G1, Modules 20) ([3]; sample x2): −0.3
- Shisa5 1437503_a_at (Group G1, Modules 20) ([3]; sample x2): −0.3
- Stat1 1450033_a_at (Group G1, Modules 20) ([3]; sample x2): −0.6
- Stat1 1450034_at (Group G1, Modules 20) ([3]; sample x2): −0.5
- Tor1aip2 1435526_at (Group G1, Modules 20) ([3]; sample x2): −0.3
- Adar 1425405_a_at (Group G1, Modules 20) ([3]; sample x3): −0.3
- Adar 1434268_at (Group G1, Modules 20) ([3]; sample x3): −0.4
- Ddx58 1436562_at (Group G1, Modules 20) ([3]; sample x3): −0.1
- Ddx58 1456890_at (Group G1, Modules 20) ([3]; sample x3): −0.3
- Gm9706///Isg15 1431591_s_at (Group G1, Modules 20) ([3]; sample x3): −0.5
- Ifit1 1450783_at (Group G1, Modules 20) ([3]; sample x3): −0.5
- Ifit3 1449025_at (Group G1, Modules 20) ([3]; sample x3): −0.5
- Irgm1 1418825_at (Group G1, Modules 20) ([3]; sample x3): −0.5
- Mndal 1426906_at (Group G1, Modules 20) ([3]; sample x3): −0.5
- Rsad2 1436058_at (Group G1, Modules 20) ([3]; sample x3): −0.4
- Shisa5 1423986_a_at (Group G1, Modules 20) ([3]; sample x3): −0.3
- Shisa5 1437503_a_at (Group G1, Modules 20) ([3]; sample x3): −0.3
- Stat1 1450033_a_at (Group G1, Modules 20) ([3]; sample x3): −0.5
- Stat1 1450034_at (Group G1, Modules 20) ([3]; sample x3): −0.5
- Tor1aip2 1435526_at (Group G1, Modules 20) ([3]; sample x3): −0.6
- Z score of gene expression, Adar (probe 1425405_a_at) [3, 4]: −0.4 and −0.6 and −0.7
- Z score of gene expression, Adar (probe 1434268_at) [3, 4]: −0.1 and −0.5 and −0.3
- Z score of gene expression, Ddx58 (probe 1436562_at) [3, 4]: −0.7
- Z score of gene expression, Ddx58 (probe 1456890_at) [3, 4]: −0.6 and −0.7 (2×)
- Z score of gene expression, Eif2ak2 (probe 1422005_at) [3, 4]: −0.4 and −0.6 and −0.5
- Z score of gene expression, G3bp2 (probe 1421323_a_at) [3, 4]: −0.3 (2×) and −0.4
- Z score of gene expression, Gm9706///Isg15 (probe 1431591_s_at) [3, 4]: −0.5
- Z score of gene expression, H2-T10///H2-T22///H2-T9 (probe 1449875_s_at) [3, 4]: −0.6 (2×) and −0.8
- Z score of gene expression, Ifih1 (probe 1426276_at) [3, 4]: −0.5 and −0.6 (2×)
- Z score of gene expression, Ifit1 (probe 1449025_at) [3, 4]: −0.5
- Z score of gene expression, Ifit1 (probe 1450783_at) [3, 4]: −0.5
- Z score of gene expression, Irf7 (probe 1417244_a_at) [3, 4]: −0.4 (2×) and −0.5
- Z score of gene expression, Irgm1 (probe 1418825_at) [3, 4]: −0.5 and −0.7 and −0.6
- Z score of gene expression, Mndal (probe 1426906_at) [3, 4]: −0.5 and −0.6 (2×)
- Z score of gene expression, Pml (probe 1448757_at) [3, 4]: −0.6 and −0.7 (2×)
- Z score of gene expression, Pml (probe 1456103_at) [3, 4]: −0.6 (2×) and −0.5
- Z score of gene expression, Rnf213 (probe 1455500_at) [3, 4]: −0.5 and −0.6 (2×)
- Z score of gene expression, Rsad2 (probe 1436058_at) [3, 4]: −0.5
- Z score of gene expression, Shisa5 (probe 1423986_a_at) [3, 4]: −0.6 and −0.7 and −0.8
- Z score of gene expression, Shisa5 (probe 1437503_a_at) [3, 4]: −0.4 and −0.7 and −0.5
- Z score of gene expression, Stat1 (probe 1450033_a_at) [3, 4]: −0.6
- Z score of gene expression, Stat1 (probe 1450034_at) [3, 4]: −0.5 and −0.6 (2×)
- Z score of gene expression, Tdrd7 (probe 1426716_at) [3, 4]: −0.7 and −1 and −0.9
- Z score of gene expression, Tor1aip2 (probe 1418115_s_at) [3, 4]: −0.2 and −0.7 and −0.6
- Z score of gene expression, Tor1aip2 (probe 1418116_at) [3, 4]: −0.4 and −0.8 and −0.6
- Z score of gene expression, Tor1aip2 (probe 1435526_at) [3, 4]: −0.4 (2×) and −0.7
- Z score of gene expression, Trim12a (probe 1437432_a_at) [3, 4]: −0.5
- Z score of gene expression, Uba7 (probe 1426970_a_at) [3, 4]: −0.6 (2×) and −0.7
